From patent US11331310B2, “Method of treating cocaine addiction” (MyMD Pharmaceuticals (Florida), Inc., priority 2015, dated 2022)
Entries after “also recorded” stand apart in the source; their conditions may differ.

How the values were obtained:
[1] = tested on: MPTP-induced toxicity; conditions: mice, cited from earlier work; for dopamine levels: MPTP
[2] = biological target: T1, MAO-A (Homo sapiens, UniProt P21397); conditions: cited from earlier work
T1 construct: purchased
T1 sequence (P21397 1-527): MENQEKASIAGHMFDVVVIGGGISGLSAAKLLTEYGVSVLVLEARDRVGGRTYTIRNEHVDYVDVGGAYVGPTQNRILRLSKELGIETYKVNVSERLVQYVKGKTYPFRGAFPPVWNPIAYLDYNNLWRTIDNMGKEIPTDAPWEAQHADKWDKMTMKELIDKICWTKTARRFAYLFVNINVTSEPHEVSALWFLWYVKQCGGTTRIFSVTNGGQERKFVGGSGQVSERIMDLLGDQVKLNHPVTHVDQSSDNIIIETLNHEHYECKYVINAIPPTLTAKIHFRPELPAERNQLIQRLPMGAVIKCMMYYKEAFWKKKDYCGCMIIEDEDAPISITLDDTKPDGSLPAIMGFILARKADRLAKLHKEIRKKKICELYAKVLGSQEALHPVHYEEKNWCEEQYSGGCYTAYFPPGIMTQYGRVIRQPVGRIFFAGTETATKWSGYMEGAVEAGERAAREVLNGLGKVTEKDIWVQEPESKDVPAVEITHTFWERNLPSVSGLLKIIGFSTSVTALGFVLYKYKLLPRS

[3] = biological target: T2, MAO-B (Homo sapiens, UniProt P27338); conditions: cited from earlier work
T2 sequence (P27338 1-520): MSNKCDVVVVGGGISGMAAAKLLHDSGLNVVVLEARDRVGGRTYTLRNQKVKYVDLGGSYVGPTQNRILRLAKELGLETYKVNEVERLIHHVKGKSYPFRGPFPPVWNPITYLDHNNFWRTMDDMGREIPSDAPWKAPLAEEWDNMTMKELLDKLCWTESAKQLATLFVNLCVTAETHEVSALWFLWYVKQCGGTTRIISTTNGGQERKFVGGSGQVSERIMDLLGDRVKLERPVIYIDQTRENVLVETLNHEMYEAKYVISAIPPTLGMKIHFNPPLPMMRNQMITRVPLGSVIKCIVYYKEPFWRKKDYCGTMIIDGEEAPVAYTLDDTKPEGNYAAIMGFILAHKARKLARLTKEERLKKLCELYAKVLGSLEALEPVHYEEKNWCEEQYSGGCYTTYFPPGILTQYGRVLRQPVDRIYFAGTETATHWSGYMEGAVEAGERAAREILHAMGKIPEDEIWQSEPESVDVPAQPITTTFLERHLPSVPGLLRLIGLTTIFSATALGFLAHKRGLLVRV

[4] = Oxygen saturation in individuals after oral administration; format: in vivo; conditions: fourteen individuals, one hour after oral administration, 100-300 mg depending on body weight
Source text: Increasing oxygen saturation levels is believed to make isomyosmine particularly effective for treating substance addictions, including tobacco/nicotine addictions, as well as addictions to heroin, cocaine, opioids, methadone, d-methamphetamine, barbiturates, alcohol, benzodiazepines, amphetamines, or buprenorphine. For example, substances such as cocaine are known to cause blood vessels to constrict, resulting in increased heartrate and blood pressure and increased stress on the heart's ability to circulate blood and oxygen through the body. Increasing oxygen saturation levels may, among other things, counteract these types of effects associated with substance abuse by increasing blood oxygen levels, aiding in the treatment of the underlying addiction.

[5] = biological target: T2, MAO-B; experiment: MAO-Glo luminescent assay, MAO-B inhibition; format: biochemical; conditions: 1 hour at room temperature, compared among five alkaloids
Source text: (§1) This example describes experiments for determining monoamine oxidase (MAO) inhibition for isomyosmine and other alkaloids. MAOs are enzymes located on the outer membrane of mitochondria and are involved in the catabolism of monoamine neurotransmitters. There are two well-characterized isoenzymes: MAO-A, which predominantly catabolizes serotonin and norepinephrine, and MAO-B, which preferentially catabolizes benzylamine and phenylethylamine. Dopamine and tyramine are metabolized by both isoforms.
(§2) To detect the activity of MAO, a luminescent method (MAO-Glo Assay kit, from Promega, Cat #V1401) was used. In this method, a MAO substrate (a derivative of beetle luciferin provided in the kit) is mixed with the compound to be tested (in this case, myosmine and control compounds). Then, the MAO enzymes (either A or B, purchased separately) are added to the mixture and incubated with the reaction for 1 hour at room temperature. The MAO enzymes, if not inhibited by the test compound, will convert the substrate into methyl ester luciferin. Finally, a luciferin detection reagent (provided by the kit) is added (20 minutes at room temperature) to stop the MAO reaction and convert methyl ester luciferin into D-luciferin. […] The luminescent signal is measured and recorded using a luminometer. […]

[6] = biological target: T1, MAO-A; experiment: MAO-Glo luminescent assay, MAO-A inhibition; format: biochemical
Source text: as §1, §2

Row | SMILES | dopamine levels [1] | decrease in dopamine metabolite levels induced by MPTP [1] | MAO inhibitory effects against MAO-A [2] | MAO inhibitory effects against MAO-B [3] | other results
1 | c1ccc(-c2ccncc2)cc1 [4-phenylpyridine] | no significant effect | prevented the decrease |  |  | 
2 | c1cncc([C@@H]2CCCCN2)c1 [anabasine] |  |  | exhibited MAO inhibitory effects | exhibited MAO inhibitory effects | 
3 | C1=CCC(c2cccnc2)NC1 (stereo not drawn) [anatabine] |  |  | exhibited MAO inhibitory effects | exhibited MAO inhibitory effects | 
4 | C1=NC(c2cccnc2)CC1 (stereo not drawn) [isomyosmine, 3-(3,4-dihydro-2H-pyrrol-2-yl)-pyridine] |  |  |  |  | oxygen saturation (%) [4]: dramatically increase; inhibition of the activity of MAO-B (in words, FIG. 2) [5]: potent inhibitor; inhibition of the activity of MAO-B (in words, FIG. 2) ([5]; listed as Isomyosmine): most potent among the five alkaloids tested; inhibition at 2000 µM ([6]; 2 mM concentration (2,000 micromolar)): ~50%; inhibition of the enzymatic activity of MAO-A (in words, curve position in FIG. 1) ([6]; 1 hour at room temperature, compared among five alkaloids): most potent of the five; also recorded: potent inhibitor
5 | CN1CCCC1c1cccnc1 (stereo not drawn) [nicotine] | no significant effect | prevented the decrease |  |  | 
6 | c1cncc([C@@H]2CCCN2)c1 [nornicotine] |  |  | exhibited MAO inhibitory effects | exhibited MAO inhibitory effects | 
